From ChEMBL document CHEMBL1201862, “PubChem BioAssay data set” (2004)
The source made the active and inactive calls.

Experiments:
[1] = target: Glyceraldehyde-3-phosphate dehydrogenase (Homo sapiens, UniProt P04406)
[2] = target: T1, Alkaline phosphatase, tissue-nonspecific isozyme (Homo sapiens, UniProt P05186); test: human TNAP enzyme inhibitors, SAR follow-up, biochemical, luminescent, dose response (AID 1056)
T1 sequence (P05186 whole entry): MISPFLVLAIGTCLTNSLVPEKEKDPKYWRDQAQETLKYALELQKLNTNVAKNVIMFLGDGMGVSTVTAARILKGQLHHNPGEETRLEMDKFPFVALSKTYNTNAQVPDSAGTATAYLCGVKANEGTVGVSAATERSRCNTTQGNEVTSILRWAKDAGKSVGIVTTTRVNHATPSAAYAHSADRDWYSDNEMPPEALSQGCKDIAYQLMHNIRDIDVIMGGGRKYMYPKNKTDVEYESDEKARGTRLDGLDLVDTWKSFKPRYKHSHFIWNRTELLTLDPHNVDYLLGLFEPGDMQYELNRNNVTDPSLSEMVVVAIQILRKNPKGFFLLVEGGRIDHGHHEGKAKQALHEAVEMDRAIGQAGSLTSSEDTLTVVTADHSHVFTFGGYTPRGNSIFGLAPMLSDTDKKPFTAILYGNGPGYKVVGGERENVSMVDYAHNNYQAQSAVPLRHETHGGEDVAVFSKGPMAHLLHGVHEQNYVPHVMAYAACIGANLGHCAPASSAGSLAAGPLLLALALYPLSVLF

[3] = THP-1 cell cytotoxicity, dose response, cytotoxicity control for Vif-APOBEC3G degradation inhibitor project, THP-1 cells (AID 1117359); type: functional; settings: Human immunodeficiency virus 1, THP-1
[4] = Luminescence Cell-Based Dose Response HTS to Identify Inhibitors of 5'UTR Stem-Loop Driven Prion Protein mRNA Translation in H4 Neuroglioblastoma Cells. [Related pubchem assays: 1827 (Project Summary), 1813 (Primary HTS)]; type: functional
[5] = target: T2, Rac GTPase-activating protein 1 (Homo sapiens, UniProt Q9H0H5); test: MgcRacGAP GTPase-activating activity inhibitors, confirmation, biochemical, ADP Hunter fluorescence, primary and confirmatory (AID 624330); type: functional
T2 sequence (Q9H0H5 whole entry): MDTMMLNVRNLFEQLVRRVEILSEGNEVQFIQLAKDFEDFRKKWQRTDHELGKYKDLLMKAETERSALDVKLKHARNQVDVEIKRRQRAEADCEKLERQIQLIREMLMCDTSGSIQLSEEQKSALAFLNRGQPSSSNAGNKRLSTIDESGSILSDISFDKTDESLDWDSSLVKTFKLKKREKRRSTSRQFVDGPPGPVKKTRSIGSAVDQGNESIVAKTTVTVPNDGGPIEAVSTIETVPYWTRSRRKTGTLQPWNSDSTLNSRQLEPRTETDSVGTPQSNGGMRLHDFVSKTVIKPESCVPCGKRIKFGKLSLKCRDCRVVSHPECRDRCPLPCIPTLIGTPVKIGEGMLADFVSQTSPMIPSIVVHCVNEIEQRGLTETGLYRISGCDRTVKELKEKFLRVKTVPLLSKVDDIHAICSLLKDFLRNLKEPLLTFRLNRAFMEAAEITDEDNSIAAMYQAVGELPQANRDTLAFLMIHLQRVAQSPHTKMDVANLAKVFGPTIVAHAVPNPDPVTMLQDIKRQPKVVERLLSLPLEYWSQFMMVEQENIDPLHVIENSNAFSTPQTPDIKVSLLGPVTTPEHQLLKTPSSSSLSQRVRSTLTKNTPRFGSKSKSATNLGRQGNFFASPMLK

[6] = HeLa cell cytotoxicity, dose response, cytotoxicity control for MgcRacGAP inhibitor project (AID 624300); type: functional
[7] = inhibitors of SNCA 5'UTR-driven reporter translation, confirmation, H4 neuroglioma cells, luminescence (AID 1988); type: functional, cell-based
[8] = inhibitors of firefly luciferase expression or activity, dose response, H4 neuroglioma cells, luminescence (AID 1990); type: functional, cell-based
[9] = inhibitors of clade B AD8 Env fusion, dose response, cell-based, cherry-pick (AID 652062); type: functional;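 note: luciferase signal from cell-cell fusion driven by HIV-1 clade B AD8 Env; potency is for inhibitors of fusion seen as a drop in luminescence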
[10] = inhibitors of HIV Env-driven cell fusion, dose response, cherry-pick (AID 652057); type: functional, cell-based
[11] = CEM21 lymphoblast cell cytotoxicity, dose response, cytotoxicity control for viral fusion inhibitor project, CellTiter-Glo luminescence, cherry-picked (AID 652042); type: functional, cell-based;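 note: potency for signal decrease meaning cytotoxicity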
[12] = ZM109 Env clade C HIV-1 fusion inhibitors, dose response, HeLa effector, CEM target cells, luciferase, cherry-pick (AID 652058); type: functional, cell-based
[13] = off-target signal loss in HeLa-CEM21 co-culture – HeLa F-luc CTL cells, cherry-picked, counter-screen for HIV-1 Env fusion inhibitor project, dose response (AID 652040); type: functional, cell-based;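 note: potency for signal decrease marking cytotoxic or nonspecific inhibition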
[14] = MC4R antagonists, dose response, counter-screen for LGR2 antagonist project, cell-based, plate reader, cherry pick (AID 743444); type: functional;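 note: transfected HEK 293 cells stimulated with alpha-MSH peptide; potency of inhibitors of the alpha-MSH evoked signal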
[15] = LGR2 antagonists, dose response, cell-based, HEK293, CRE-luciferase reporter, cherry pick, set 2 (AID 743343); type: functional;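 note: transfected cells were stimulated with diluted bursicon conditioned medium after compound addition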
[16] = target: T3, DNA repair protein RAD52 homolog (Homo sapiens, UniProt P43351); type: functional, biochemical
T3 sequence (P43351 whole entry): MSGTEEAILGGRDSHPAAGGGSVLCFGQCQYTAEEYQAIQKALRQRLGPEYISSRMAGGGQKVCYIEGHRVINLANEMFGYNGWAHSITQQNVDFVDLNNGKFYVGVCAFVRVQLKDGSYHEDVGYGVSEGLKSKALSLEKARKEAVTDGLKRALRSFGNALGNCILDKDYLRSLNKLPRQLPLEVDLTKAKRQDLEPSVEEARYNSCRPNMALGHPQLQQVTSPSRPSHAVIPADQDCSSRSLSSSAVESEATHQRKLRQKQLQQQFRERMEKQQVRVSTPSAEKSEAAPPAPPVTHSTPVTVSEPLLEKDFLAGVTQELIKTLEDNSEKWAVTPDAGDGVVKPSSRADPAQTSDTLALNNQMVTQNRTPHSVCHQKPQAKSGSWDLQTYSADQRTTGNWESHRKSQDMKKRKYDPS

[17] = inhibitors of intracellular T. cruzi replication, confirmation, NIH3T3 host cells, beta-gal luminescence (AID 2044); type: functional, cell-based;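 note: intracellular parasites grown in NIH/3T3 mouse fibroblasts as host cells; luminescent beta-galactosidase reporter signal from transgenic T. cruzi replicating inside host cells; inhibitors lower the luminescence signal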
[18] = cytotoxicity toward NIH3T3 fibroblasts, dose response, counter-screen, cell-based, ATP luminescence, mouse fibroblasts (AID 2010); type: functional;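 note: cells exposed to compound for about 90 hours before reading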
[19] = target: DNA dC->dU-editing enzyme APOBEC-3G (Homo sapiens, UniProt Q9HC16); test: Dose Response confirmation of small molecule APOBEC3G DNA Deaminase Inhibitors via a fluorescence-based single-stranded DNA deaminase assay. [Related pubchem assays (depositor defined):AID493012, AID493028]; type: functional
Sequence of DNA dC->dU-editing enzyme APOBEC-3G (Q9HC16 whole entry): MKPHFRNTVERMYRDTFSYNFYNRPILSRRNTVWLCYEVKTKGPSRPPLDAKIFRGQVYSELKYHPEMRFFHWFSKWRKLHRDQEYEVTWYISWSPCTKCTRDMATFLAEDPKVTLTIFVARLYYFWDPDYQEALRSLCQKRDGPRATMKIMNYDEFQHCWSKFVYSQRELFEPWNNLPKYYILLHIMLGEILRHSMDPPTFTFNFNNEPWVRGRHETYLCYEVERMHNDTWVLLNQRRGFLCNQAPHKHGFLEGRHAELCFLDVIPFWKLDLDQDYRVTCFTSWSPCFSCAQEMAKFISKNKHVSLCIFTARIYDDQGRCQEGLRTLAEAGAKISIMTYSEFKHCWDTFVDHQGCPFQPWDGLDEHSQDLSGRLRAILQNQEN

[20] = inhibitors of PGC1a acetylation in cells, dose response, cell-based, cherry-picked samples (AID 720514); type: functional;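 note: potency may reflect raised or lowered acetylation signal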
[21] = target: T4, Microphthalmia-associated transcription factor (Homo sapiens, UniProt O75030); test: TRPM1 promoter luciferase signal decrease, dose response, MITF inhibitor project, cell-based, SK-MEL-5, cherry-picked, set 3 (AID 493073); type: functional
T4 sequence (O75030 whole entry): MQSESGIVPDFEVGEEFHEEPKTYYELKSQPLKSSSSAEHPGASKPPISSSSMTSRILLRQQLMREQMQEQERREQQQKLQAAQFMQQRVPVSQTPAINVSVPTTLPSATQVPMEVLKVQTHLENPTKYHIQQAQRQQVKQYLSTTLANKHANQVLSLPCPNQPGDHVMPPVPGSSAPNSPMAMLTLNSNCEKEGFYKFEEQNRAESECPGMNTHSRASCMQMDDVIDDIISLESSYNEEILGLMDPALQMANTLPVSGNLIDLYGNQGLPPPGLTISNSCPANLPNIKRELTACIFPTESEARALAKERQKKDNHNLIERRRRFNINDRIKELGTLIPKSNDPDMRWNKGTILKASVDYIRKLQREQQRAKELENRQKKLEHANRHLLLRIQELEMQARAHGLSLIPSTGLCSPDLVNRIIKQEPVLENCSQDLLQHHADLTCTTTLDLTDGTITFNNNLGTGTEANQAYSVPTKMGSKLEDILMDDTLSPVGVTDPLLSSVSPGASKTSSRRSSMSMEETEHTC

[22] = P. falciparum Dd2 growth inhibitors, dose response, SYBR Green, cherry-picked samples (AID 1159567); type: functional, cell-based
[23] = HepG2 cell cytotoxicity, dose response, cytotoxicity control, cherry-picked samples (AID 1159577); type: functional, cell-based
[24] = P. falciparum 3D7-ScDHODH growth inhibitors, dose response, SYBR Green, dry powder samples (AID 1159570); type: functional, cell-based;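 note: parasite growth measured after 72 hours of compound exposure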
[25] = P. falciparum ATP4 D1247Y mutant growth inhibitors, dose response, NITD609-resistant line, SYBR Green, dry powder (AID 1159571); type: functional, cell-based;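 note: parasites synchronized at ring stage by sorbitol before testing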
[26] = P. falciparum Dd2 growth inhibitors, dose response, SYBR Green, dry powder samples (AID 1159566); type: functional, cell-based;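 note: potency for growth inhibition with lower SYBR green DNA signal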
[27] = HepG2 cell cytotoxicity, dose response, cytotoxicity control, plate reader, dry powder samples (AID 1159569); type: functional, cell-based;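 note: inhibitor potency with signal falling toward the positive control level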

Sequence of Glyceraldehyde-3-phosphate dehydrogenase (P04406 whole entry): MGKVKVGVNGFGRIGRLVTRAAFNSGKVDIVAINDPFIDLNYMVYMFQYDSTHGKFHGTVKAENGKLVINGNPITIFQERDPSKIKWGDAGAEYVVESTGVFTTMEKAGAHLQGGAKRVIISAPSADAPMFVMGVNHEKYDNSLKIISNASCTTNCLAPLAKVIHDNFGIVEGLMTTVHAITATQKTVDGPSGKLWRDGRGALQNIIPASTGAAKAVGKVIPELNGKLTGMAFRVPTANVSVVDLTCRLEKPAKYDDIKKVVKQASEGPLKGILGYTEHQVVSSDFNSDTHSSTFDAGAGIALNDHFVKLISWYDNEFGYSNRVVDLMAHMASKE

## COc1ccc(OC)c(S(=O)(=O)Nc2ccc(O)c3ccccc23)c1
[1]
  IC50: > 100 µM (not active)
[2]
  IC50: > 100 µM (inactive)
[3]
  CC50: 12.8 µM (active)

## CCOC(=O)c1sc2nc(CSc3ccccc3)nc(N3CCCN(C)CC3)c2c1C
[4]
  EC50: > 120 µM (not active)
[5]
  IC50: 149 µM (active)
[6]
  CC50: 53.8 µM (active)
[7]
  EC50: 8.64 µM (active)
[8]
  EC50: 16.9 µM (active)

## CN1CC(c2ccccc2Cl)C2(COc3ccccc3C2=O)C12C(=O)Nc1ccccc12 (centres undefined)
[9]
  AC50: 10.6 µM (active)
[10]
  AC50: 4.21 µM (active)
[11]
  AC50: 65.3 µM (active)
[12]
  AC50: 3 µM (active)
[13]
  AC50: 6.24 µM (active)

## Cc1ccc(NC(=O)c2cnn(-c3ccccc3)c2C)cc1C
[14]
  AC50: 4.12 µM (active)
[15]
  AC50: 7.23 µM (active)

## COc1ccc(C2c3ccc4ccccc4c3Oc3ncn(CCN(C)C)c(=N)c32)cc1 (centres undefined)
[16]
  AC50: 19.9 µM (active)
[17]
  EC50: 1.34 µM (active)
[18]
  EC50: 22.1 µM (active)

## Cc1sc2nc(CN3CCCCC3)nc(Nc3ccc4c(c3)OCCO4)c2c1C
[16]
  AC50: 22.2 µM (active)

## COc1ccc(O)c(C(=O)C2c3ccccc3C(=O)N2c2ccc(C)cc2)c1 (centres undefined)
[19]
  IC50: 37.4 µM (active)
[3]
  CC50: > 40 µM (active)

## CC1=C(Cl)C2=NS(=O)(=O)CCN2C=C1Cl
[20]
  AC50: 3.55 µM (active)

## O=C1/C(=C/c2ccccc2[N+](=O)[O-])COc2ccccc21
[5]
  IC50: 101 µM (active)
[6]
  CC50: 100 µM (active)
[20]
  AC50: 4.77 µM (active)
[21]
  AC50: 9.8 µM (active)

## O=C1CCCc2c1[nH]c1ccc(Cl)cc21
[7]
  EC50: 9.1 µM (active)
[9]
  AC50: 6.38 µM (active)
[10]
  AC50: 3.39 µM (active)
[12]
  AC50: 15 µM (active)
[13]
  AC50: < 0.26 µM (active)

## Cc1ccc([C@H]2C(C(=O)O)=CC[C@@H](c3cccc(Cl)c3)N2S(=O)(=O)c2ccc(C)cc2)cc1
[3]
  CC50: > 40 µM (active)

## C[C@H]1CN([C@@H](C)CO)C(=O)Cc2cc(NC(=O)Nc3ccc4c(c3)OCO4)ccc2O[C@H]1CN(C)S(=O)(=O)c1ccccc1
[9]
  AC50: 7.28 µM (active)
[10]
  AC50: 0.991 µM (active)
[11]
  AC50: 37.3 µM (active)
[12]
  AC50: 0.739 µM (active)

## C[C@H]1CN([C@@H](C)CO)C(=O)Cc2cc(NC(=O)Nc3ccc4c(c3)OCO4)ccc2O[C@H]1CN(C)S(=O)(=O)c1cccs1
[9]
  AC50: 22.3 µM (active)
[10]
  AC50: 1.93 µM (active)
[11]
  AC50: 49.9 µM (active)

## CC(=O)Nc1cccc(Oc2nc(NCCN(C)C)nc3ccsc23)c1
[16]
  AC50: 11.1 µM (active)

## N#Cc1cccc(-c2ccc([C@@H]3[C@@H]4CN(S(=O)(=O)c5ccc(-c6ccccc6)cc5)C[C@H]3N4)cc2)c1
[20]
  AC50: 1.82 µM (active)

## N#Cc1ccc(-c2ccc([C@@H]3[C@@H]4CN(S(=O)(=O)c5ccc(F)cc5)C[C@H]3N4)cc2)cc1
[22]
  AC50: 4.69 µM (active)
[20]
  AC50: 1.57 µM (active)

## N#C[C@H]1[C@H](c2ccc(-c3ccccc3)cc2)[C@H](CO)N1C(=O)Cc1ccncc1
[22]
  AC50: 3.05 µM (active)
[23]
  AC50: > 36 µM (inactive)

## COc1ccccc1C#Cc1ccc([C@H]2[C@@H](C#N)N(C(=O)C3CCC3)[C@H]2CO)cc1
[24]
  AC50: 1.16 µM (active)
[22]
  AC50: 1.36 µM (active)
[25]
  AC50: 0.795 µM (active)
[26]
  AC50: 0.51 µM (active)
[23]
  AC50: > 42 µM (inactive)
[27]
  AC50: 37.3 µM (active)

## CO[C@@H]1CN(C)C(=O)c2cc(NC(=O)c3ccc(-c4ccccc4)cc3)ccc2OC[C@@H](C)NC[C@@H]1C
[22]
  AC50: 7.25 µM (active)
[23]
  AC50: 14.2 µM (active)

## COc1ccc2c3c(n(C)c2c1)[C@@H](CO)NCC31CCN(Cc2ccccc2Cl)CC1
[22]
  AC50: 2.44 µM (active)
[23]
  AC50: 18.3 µM (active)

## CC(C)(C)n1nc(Cc2cccc3ccccc23)c2c(N)ncnc21
[9]
  AC50: 34.5 µM (active)
[10]
  AC50: 7.07 µM (active)
[11]
  AC50: 46.8 µM (active)
[13]
  AC50: 31.1 µM (active)
